Measured values as given in US11046680B1, “Heteroaryl-substituted triazoles as APJ receptor agonists” (priority 2016, dated 2021).

Each compound was assayed against human APJ receptor (Homo sapiens (Human), UniProt P35414) (assay: biochemical). Conditions: [35S]GTPγS binding, CHO membranes expressing human APJ receptor; read-out: Activity hAPJ SPA EC50 IP.
human APJ receptor, sequence (P35414 whole entry): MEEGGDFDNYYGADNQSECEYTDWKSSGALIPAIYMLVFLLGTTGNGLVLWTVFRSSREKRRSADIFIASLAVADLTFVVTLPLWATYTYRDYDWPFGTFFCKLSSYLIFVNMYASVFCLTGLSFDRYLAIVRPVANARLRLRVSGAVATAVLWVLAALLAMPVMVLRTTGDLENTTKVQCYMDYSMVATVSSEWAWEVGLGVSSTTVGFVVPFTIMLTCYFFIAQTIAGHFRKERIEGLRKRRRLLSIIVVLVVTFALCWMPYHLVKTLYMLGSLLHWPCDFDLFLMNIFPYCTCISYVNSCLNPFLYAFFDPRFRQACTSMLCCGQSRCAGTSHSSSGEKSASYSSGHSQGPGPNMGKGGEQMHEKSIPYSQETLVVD
Type: biochemical
Procedure, shortened: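 GTPγS binding on membranes from CHO cells stably expressing FLAG-tagged human APJ, with optimized GDP, MgCl2 and NaCl; incubated 90 min at RT before imaging read-out.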
`COc1cccc(OC)c1-n1c(NS(=O)(=O)[C@H](C)[C@H](O)c2ncc(C)cn2)nnc1-c1nc(C)cs1` (single isomer, unassigned) [Example 317.0, (1R,2R)-N-(4-(2,6-dimethoxyphenyl)-5-(4-methylthiazol-2-yl)-4H-1,2,4-triazol-3-yl)-1-hydroxy-1-(5-methylpyrimidin-2-yl)propane-2-sulfonamide or (1S,2S)-N-(4-(2,6-dimethoxyphenyl)-5-(4-methylthiazol-2-yl)-4H-1,2,4-triazol-3-yl)-1-hydroxy-1-(5-methylpyrimidin-2-yl)propane-2-sulfonamide] gave an EC50 of 6.6 nM. Compound `COc1cccc(OC)c1-n1c(NS(=O)(=O)[C@@H](C)[C@H](O)c2cn3ccccc3n2)nnc1-c1ccn(C)n1` (single isomer, unassigned) [Example 350.0, (1R,2S)-N-(4-(2,6-Dimethoxyphenyl)-5-(1-methyl-1H-pyrazol-3-yl)-4H-1,2,4-triazol-3-yl)-1-hydroxy-1-imidazo[1,2-a]pyridin-2-yl-2-propanesulfonamide or (1S,2R)-N-(4-(2,6-dimethoxyphenyl)-5-(1-methyl-1H-pyrazol-3-yl)-4H-1,2,4-triazol-3-yl)-1-hydroxy-1-imidazo[1,2-a]pyridin-2-yl-2-propanesulfonamide] has an EC50 of 6.1 nM. For `CCO[C@@H](c1ncc(Cl)cn1)[C@H](C)S(=O)(=O)Nc1nnc(-c2ccn(C)n2)n1-c1c(OC)cccc1OC` (single isomer, unassigned) [Example 352.0, (1S,2S)-1-(5-chloropyrimidin-2-yl)-N-(4-(2,6-dimethoxyphenyl)-5-(1-methyl-1H-pyrazol-3-yl)-4H-1,2,4-triazol-3-yl)-1-ethoxypropane-2-sulfonamide or (1R,2R)-1-(5-chloropyrimidin-2-yl)-N-(4-(2,6-dimethoxyphenyl)-5-(1-methyl-1H-pyrazol-3-yl)-4H-1,2,4-triazol-3-yl)-1-ethoxypropane-2-sulfonamide], the EC50 was 35 nM. `CCO[C@@H](c1ncc(Cl)cn1)[C@H](C)S(=O)(=O)Nc1nnc(-c2ccn(C)n2)n1-c1c(OC)cccc1OC` (single isomer, unassigned) [Example 353.0, (1S,2S)-1-(5-chloropyrimidin-2-yl)-N-(4-(2,6-dimethoxyphenyl)-5-(1-methyl-1H-pyrazol-3-yl)-4H-1,2,4-triazol-3-yl)-1-ethoxypropane-2-sulfonamide or (1R,2R)-1-(5-chloropyrimidin-2-yl)-N-(4-(2,6-dimethoxyphenyl)-5-(1-methyl-1H-pyrazol-3-yl)-4H-1,2,4-triazol-3-yl)-1-ethoxypropane-2-sulfonamide] was tested, and the EC50 was 0.22 nM. `CCO[C@@H](c1ncc(Cl)cn1)[C@@H](C)S(=O)(=O)Nc1nnc(-c2ccn(C)n2)n1-c1c(OC)cccc1OC` (single isomer, unassigned) [Example 354.0, (1S,2R)-1-(5-chloropyrimidin-2-yl)-N-(4-(2,6-dimethoxyphenyl)-5-(1-methyl-1H-pyrazol-3-yl)-4H-1,2,4-triazol-3-yl)-1-ethoxypropane-2-sulfonamide or (1R,25)-1-(5-chloropyrimidin-2-yl)-N-(4-(2,6-dimethoxyphenyl)-5-(1-methyl-1H-pyrazol-3-yl)-4H-1,2,4-triazol-3-yl)-1-ethoxypropane-2-sulfonamide] gave an EC50 of 0.75 nM. `COc1cccc(OC)c1-n1c(NS(=O)(=O)C[C@H](O)c2ccc(F)cc2S(C)(=O)=O)nnc1-c1ccn(C)n1` (single isomer, unassigned) [Example 370.0, (R)-N-(4-(2,6-Dimethoxyphenyl)-5-(1-methyl-1H-pyrazol-3-yl)-4H-1,2,4-triazol-3-yl)-2-(4-fluoro-2-(methylsulfonyl)phenyl)-2-hydroxyethanesulfonamide or (S)-N-(4-(2,6-dimethoxyphenyl)-5-(1-methyl-1H-pyrazol-3-yl)-4H-1,2,4-triazol-3-yl)-2-(4-fluoro-2-(methylsulfonyl)phenyl)-2-hydroxyethanesulfonamide] showed an EC50 of 3.1 nM.
